ChEMBL document CHEMBL1201862, “PubChem BioAssay data set” (2004)
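Each compound was tested at five concentrations against cells in 96-well plates for 48 hours. Here, GI50 denotes the concentration required for 50% inhibition of growth.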 Active and inactive are the calls of the source. Cut-off read from the data, not from the text of the source: active = GI50 up to about 1.1 µM and inactive = higher.

How the values were obtained:
Experiment in all cases: growth of human tumour cells (NCI), 48 h
OVCAR-3 = tested on: OVCAR-3
K562 = tested on: K562
CCRF-CEM = tested on: CCRF-CEM
OVCAR-4 = tested on: OVCAR-4
SK-MEL-28 = tested on: SK-MEL-28
A498 = tested on: A498
HT-29 = tested on: HT-29
SF-539 = tested on: SF-539
NCI-H460 = tested on: NCI-H460
RXF 393 = tested on: RXF 393
A549 = tested on: A549
SF-295 = tested on: SF-295
UACC-257 = tested on: UACC-257
SR = tested on: SR
SN12C = tested on: SN12C
786-0 = tested on: 786-0
HL-60 = tested on: HL-60
RPMI-8226 = tested on: RPMI-8226
SF-268 = tested on: SF-268
NCI-H522 = tested on: NCI-H522

Row | SMILES | GI50 (OVCAR-3) | GI50 (K562) | GI50 (CCRF-CEM) | GI50 (OVCAR-4) | GI50 (SK-MEL-28) | GI50 (A498) | GI50 (HT-29) | GI50 (SF-539) | GI50 (NCI-H460) | GI50 (RXF 393) | GI50 (A549) | GI50 (SF-295) | GI50 (UACC-257) | GI50 (SR) | GI50 (SN12C) | GI50 (786-0) | GI50 (HL-60) | GI50 (RPMI-8226) | GI50 (SF-268) | GI50 (NCI-H522)
1 | CC12C3C4C1C1C2C3C41CO (centres undefined) | > 100 µM (inactive) | > 100 µM (inactive) | > 100 µM (inactive) | > 100 µM (inactive) | > 100 µM (inactive) | > 100 µM (inactive) | > 100 µM (inactive) | > 100 µM (inactive) | > 100 µM (inactive) | > 100 µM (inactive) | > 100 µM (inactive) | > 100 µM (inactive) | > 100 µM (inactive) | > 100 µM (inactive) | > 100 µM (inactive) | > 100 µM (inactive) | > 100 µM (inactive) | – | – | –
2 | COc1ccc2c(c1)OC[C@@H]1c3cc(O)c(OCc4ccccc4)cc3O[C@H]21 | 38 µM (inactive) | 31.8 µM (inactive) | 34.3 µM (inactive) | 16.6 µM (inactive) | 32.9 µM (inactive) | 6.62 µM (inactive) | 34.2 µM (inactive) | 90.4 µM (inactive) | 17.3 µM (inactive) | 25.9 µM (inactive) | 26.2 µM (inactive) | 28.8 µM (inactive) | 17.9 µM (inactive) | – | – | 37.3 µM (inactive) | 16.8 µM (inactive) | 10.2 µM (inactive) | 28.3 µM (inactive) | 13.5 µM (inactive)
3 | O=c1[nH]cnc2c(COCCCO)c[nH]c12 | > 100 µM (inactive) | > 100 µM (inactive) | > 100 µM (inactive) | – | > 100 µM (inactive) | – | > 100 µM (inactive) | – | – | > 100 µM (inactive) | > 100 µM (inactive) | > 100 µM (inactive) | > 100 µM (inactive) | > 100 µM (inactive) | > 100 µM (inactive) | > 100 µM (inactive) | > 100 µM (inactive) | > 100 µM (inactive) | > 100 µM (inactive) | > 100 µM (inactive)
4 | COc1nc2c(N3CCCC3)nc(N3CCNCC3)nc2nc1NCc1ccccc1 | 0.755 µM (active) | 1.67 µM (inactive) | 1.58 µM (inactive) | 3.03 µM (inactive) | 2.01 µM (inactive) | – | 1.07 µM (active) | 1.75 µM (inactive) | 1.95 µM (inactive) | 1.28 µM (inactive) | 2.01 µM (inactive) | 1.74 µM (inactive) | 1.74 µM (inactive) | 1.32 µM (inactive) | 2.03 µM (inactive) | 1.33 µM (inactive) | 1.68 µM (inactive) | 1.69 µM (inactive) | 2.03 µM (inactive) | 1.09 µM (active)
5 | Clc1cc(Cl)cc(C2SCc3nc4ccccc4n32)c1 (centres undefined) | 16.9 µM (inactive) | 3.82 µM (inactive) | 9.79 µM (inactive) | – | 13.8 µM (inactive) | – | 12 µM (inactive) | 11.1 µM (inactive) | 14.3 µM (inactive) | 14.6 µM (inactive) | 19.6 µM (inactive) | 14.5 µM (inactive) | 15.2 µM (inactive) | 17.2 µM (inactive) | 15.2 µM (inactive) | 15.6 µM (inactive) | 4.31 µM (inactive) | 11.5 µM (inactive) | 20.4 µM (inactive) | 14.3 µM (inactive)
6 | CN(C)CC(CO)(CN(C)C)CN(C)C | > 100 µM (inactive) | > 100 µM (inactive) | > 100 µM (inactive) | > 100 µM (inactive) | > 100 µM (inactive) | – | > 100 µM (inactive) | > 100 µM (inactive) | > 100 µM (inactive) | > 100 µM (inactive) | > 100 µM (inactive) | > 100 µM (inactive) | > 100 µM (inactive) | > 100 µM (inactive) | > 100 µM (inactive) | > 100 µM (inactive) | > 100 µM (inactive) | > 100 µM (inactive) | > 100 µM (inactive) | > 100 µM (inactive)
7 | CC(C)[C@H]1CO[C@@H]2O[C@H](C)CC(=O)N21 | > 100 µM (inactive) | > 100 µM (inactive) | > 100 µM (inactive) | > 100 µM (inactive) | > 100 µM (inactive) | – | > 100 µM (inactive) | > 100 µM (inactive) | > 100 µM (inactive) | > 100 µM (inactive) | > 100 µM (inactive) | > 100 µM (inactive) | > 100 µM (inactive) | > 100 µM (inactive) | > 100 µM (inactive) | > 100 µM (inactive) | > 100 µM (inactive) | > 100 µM (inactive) | > 100 µM (inactive) | > 100 µM (inactive)
8 | Cc1ccc(S(=O)(=O)OCCOCCOCCOCCOCCOS(=O)(=O)c2ccc(C)cc2)cc1 | 21.7 µM (inactive) | 31.7 µM (inactive) | 21.4 µM (inactive) | 51.3 µM (inactive) | > 100 µM (inactive) | 44.4 µM (inactive) | 28.3 µM (inactive) | – | 36.7 µM (inactive) | > 100 µM (inactive) | 69.8 µM (inactive) | 50.7 µM (inactive) | 25 µM (inactive) | 54.3 µM (inactive) | 39.7 µM (inactive) | 62.8 µM (inactive) | – | 33.5 µM (inactive) | > 100 µM (inactive) | 23.7 µM (inactive)
